Structures are written as SMILES.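 These data come from cells grown in 96-well plates and exposed to compound for 48 hours at five concentrations. GI50: concentration for 50% inhibition of growth.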 Active and inactive are the calls of the source. Cut-off read from the data, not from the text of the source: active = GI50 up to about 1.1 µM and inactive = higher. Where a SMILES comes first, the peptide text is derived from it. [ ]: non-standard residue; d: D form. ξ: configuration not given here. ξThz(5,5-Me2) = CC1(C)SCNC1C(=O)O A value given as a limit tells only on which side of the number the result lay.

Test systems include HOP-62; DU-145; T47D; SF-295; SK-MEL-5; TK-10; CCRF-CEM; NCI-H23; ACHN; SN12C; PC-3; 786-0; IGROV-1; KM12; HCT-15; NCI-H522; MOLT-4; LOX IMVI; SK-MEL-2.
What all share (experiment): NCI anticancer screen, dose series, 48 h

On to `CSCC[C@H](NC(=O)[C@H](CC(C)C)NC(=O)[C@H](Cc1c[nH]cn1)NC(=O)CNC(=O)C1N(C(=O)[C@@H](C)NC(=O)[C@H](Cc2c[nH]c3ccccc23)NC(=O)[C@H](CCC(N)=O)NC(=O)[C@@H](N)CC(N)=O)CSC1(C)C)C(N)=O` (stereo partly specified) (H-NQW[dA][ξThz(5,5-Me2)]GHLM-NH2), for which the GI50 in the assay with HOP-62, with DU-145, in the assay on T47D, with SF-295, with SK-MEL-5 and with TK-10 was > 25 µM (inactive) throughout. Moreover, the GI50 in the assay on CCRF-CEM, in the assay with NCI-H23, in the assay on ACHN, with SN12C, with PC-3 and in the assay on 786-0 was > 25 µM (inactive) in each case. The GI50 in the assay on IGROV-1 is > 25 µM (inactive); in the assay with KM12, > 25 µM (inactive); in the assay with HCT-15, more than 25 µM; in the assay with NCI-H522, > 25 µM (inactive); in the assay on MOLT-4, > 25 µM (inactive); in the assay on LOX IMVI it was > 25 µM (inactive).
On to `Cc1cc(C)nc(NS(=O)(=O)c2ccc(NC(=O)c3cccc4c(Nc5ccc(S(=O)(=O)N=C(N)N)cc5)c5ccccc5nc34)cc2)n1`, for which the GI50 is 37.8 µM (inactive) in the assay on HOP-62; 27.4 µM (inactive) with SF-295; 52.8 µM (inactive) in the assay on SK-MEL-2; 54.8 µM (inactive) in the assay on SK-MEL-5; 34.8 µM (inactive) in the assay on TK-10; 45.6 µM (inactive) in the assay on CCRF-CEM. The GI50 in the assay with NCI-H23 was 40 µM (inactive); in the assay with ACHN, 47.1 µM (inactive); in the assay with SN12C, 50.7 µM (inactive); in the assay on 786-0 it was 30.3 µM (inactive); in the assay on IGROV-1, 40.4 µM (inactive); in the assay on KM12, 6.17 µM (inactive). The GI50 in the assay on HCT-15 was 30.1 µM; in the assay on NCI-H522 it was 44.3 µM (inactive); in the assay with MOLT-4, 32.8 µM (inactive); in the assay with LOX IMVI, 39.5 µM (inactive).
For the compound `CCOc1ccc2[nH]c3c(C)c4ccncc4c(C)c3c2c1`, the GI50 was 1.08 µM (active) in the assay on HOP-62; 1.02 µM (active) in the assay on SF-295; 1.19 µM (inactive) in the assay on SK-MEL-2; 1.51 µM (inactive) in the assay with SK-MEL-5; 2.12 µM (inactive) in the assay on TK-10; 0.649 µM (active) in the assay with CCRF-CEM. The GI50 is 1.45 µM (inactive) in the assay on NCI-H23; 1.07 µM (active) with ACHN; 0.564 µM (active) in the assay on SN12C; 1.03 µM (active) in the assay with 786-0; 1.16 µM (inactive) in the assay with IGROV-1; 1 µM (active) in the assay with KM12. Also, the GI50 with HCT-15 was 0.448 µM; with NCI-H522 it was 1.45 µM (inactive); in the assay with MOLT-4, 0.426 µM (active); in the assay with LOX IMVI, 1.2 µM (inactive).
Turning to `COc1c(Br)cc(Br)c(OC)c1-c1ccc[nH]1`, the GI50 was > 100 µM (inactive) in the assay on HOP-62; > 100 µM (inactive) in the assay with SF-295; 45.3 µM (inactive) with SK-MEL-2; > 100 µM (inactive) in the assay with SK-MEL-5; 5.83 µM (inactive) with TK-10; 78.9 µM (inactive) in the assay with CCRF-CEM. For the same compound, the GI50 in the assay with NCI-H23 was > 100 µM (inactive); in the assay on ACHN, > 100 µM (inactive); in the assay with 786-0 it was > 100 µM (inactive); in the assay on IGROV-1, 53.6 µM (inactive); in the assay on KM12, > 100 µM (inactive); in the assay with HCT-15 it was 55.8 µM. Further, the figures for the GI50 in the assay with NCI-H522, in the assay on MOLT-4 and in the assay with LOX IMVI were 55.1 µM (inactive), 46.8 µM (inactive) and > 100 µM (inactive), respectively.
For `O=C1C2CCCC2N1Cc1ccccc1` (stereo unspecified), the GI50 in the assay on HOP-62, in the assay on DU-145, in the assay on T47D, with SF-295, in the assay with SK-MEL-5 and in the assay on TK-10 was > 100 µM (inactive) each time. Besides, the GI50 in the assay with CCRF-CEM, with NCI-H23, in the assay on ACHN, in the assay on SN12C, with 786-0 and in the assay on IGROV-1 was > 100 µM (inactive) in each case. Further, the GI50 in the assay with KM12 was > 100 µM (inactive); in the assay on HCT-15, more than 100 µM; in the assay with NCI-H522, > 100 µM (inactive); in the assay on MOLT-4 it was > 100 µM (inactive); in the assay with LOX IMVI it was > 100 µM (inactive).
In the case of `CCCC(=O)OCC(O)CO` (stereo unspecified), the GI50 in the assay on HOP-62 was > 5000 µM (inactive); with SF-295, > 5000 µM (inactive); with SK-MEL-2 it was 3780 µM (inactive); in the assay on SK-MEL-5, 4970 µM (inactive); in the assay with TK-10, 1570 µM (inactive); with CCRF-CEM, 4500 µM (inactive). Besides, the GI50 in the assay on NCI-H23 is > 5000 µM (inactive); in the assay on ACHN, 4830 µM (inactive); in the assay with SN12C, > 5000 µM (inactive); in the assay on 786-0, > 5000 µM (inactive); with IGROV-1, > 5000 µM (inactive); in the assay on KM12, > 5000 µM (inactive). Besides, the GI50 is more than 5000 µM in the assay with HCT-15, 3740 µM (inactive) in the assay on NCI-H522, > 5000 µM (inactive) with MOLT-4 and > 5000 µM (inactive) in the assay with LOX IMVI.
For the compound `CCCCN(CCCC)CC(O)c1cc(-c2ccc(Cl)c(Cl)c2)nc2c(Cl)cc(Cl)cc12` (stereo unspecified), the GI50 in the assay on HOP-62 is 66.5 µM (inactive); in the assay on DU-145, > 100 µM (inactive); in the assay with T47D it was 37.2 µM (inactive); with SF-295 it was > 100 µM (inactive); in the assay on SK-MEL-2, > 100 µM (inactive); with TK-10 it was > 100 µM (inactive). Further, the GI50 is 65.3 µM (inactive) in the assay on CCRF-CEM; 49.5 µM (inactive) with NCI-H23; 89.1 µM (inactive) in the assay with ACHN; 47.4 µM (inactive) in the assay on SN12C; 36.4 µM (inactive) in the assay on PC-3; > 100 µM (inactive) in the assay with 786-0. Besides, the GI50 is > 100 µM (inactive) in the assay on IGROV-1, 45.1 µM in the assay on HCT-15, 46.2 µM (inactive) in the assay with MOLT-4 and 88.1 µM (inactive) in the assay on LOX IMVI.
For the compound `CN(C)CC1CCC/C1=N\O` (stereo unspecified), the GI50 in the assay on HOP-62, with SF-295, in the assay with SK-MEL-2, with SK-MEL-5, with TK-10 and in the assay on CCRF-CEM was > 100 µM (inactive) throughout. Besides, the GI50 was > 100 µM (inactive) with NCI-H23; > 100 µM (inactive) in the assay on ACHN; > 100 µM (inactive) in the assay with SN12C; > 100 µM (inactive) with 786-0; > 100 µM (inactive) with IGROV-1; more than 100 µM with HCT-15. The GI50 in the assay with NCI-H522, in the assay on MOLT-4 and in the assay with LOX IMVI was > 100 µM (inactive) each time.
With `CC(=O)OC12c3ccccc3C1CCCCCC21OCCCO1` (stereo unspecified), the GI50 in the assay with HOP-62, in the assay with SF-295, in the assay with SK-MEL-2, with SK-MEL-5, with TK-10 and in the assay on CCRF-CEM was > 100 µM (inactive) in each case. For the same compound, the GI50 with NCI-H23, in the assay on ACHN, with SN12C, in the assay on 786-0, in the assay on IGROV-1 and in the assay on KM12 was > 100 µM (inactive) throughout. For the same compound, the GI50 with HCT-15 is more than 100 µM; with NCI-H522, > 100 µM (inactive); in the assay with MOLT-4, > 100 µM (inactive); with LOX IMVI, > 100 µM (inactive).
For `Cc1nccc2c1cnc1ccnn12`, the GI50 in the assay on HOP-62, in the assay on SK-MEL-2, in the assay with SK-MEL-5, in the assay with TK-10, with CCRF-CEM and with NCI-H23 was > 100 µM (inactive) in each case. Moreover, the GI50 in the assay with ACHN is > 100 µM (inactive); with SN12C, > 100 µM (inactive); with 786-0, > 100 µM (inactive); with IGROV-1 it was > 100 µM (inactive); with KM12, > 100 µM (inactive); with HCT-15, more than 100 µM. The GI50 in the assay on NCI-H522, in the assay on MOLT-4 and in the assay on LOX IMVI was > 100 µM (inactive) throughout.
`Cc1cn(C2CC(OC3CCCCO3)C(CO)O2)c(=O)[nH]c1=O` (stereo unspecified): the GI50 with HOP-62, in the assay on SF-295, in the assay on SK-MEL-2, in the assay with TK-10, in the assay on CCRF-CEM and with NCI-H23 was > 100 µM (inactive) throughout. The GI50 in the assay on ACHN was > 100 µM (inactive); in the assay on SN12C it was > 100 µM (inactive); in the assay with 786-0 it was > 100 µM (inactive); in the assay with IGROV-1 it was > 100 µM (inactive); in the assay on KM12, > 100 µM (inactive); in the assay with HCT-15, more than 100 µM. Moreover, the GI50 in the assay on NCI-H522, in the assay on MOLT-4 and with LOX IMVI was > 100 µM (inactive) throughout.
In the case of `CCOc1ccc(C2=NN(CC)C(=O)C(C3C(=O)N(c4ccccc4)N=C3C)C2)cc1` (stereo unspecified), the GI50 in the assay on HOP-62, in the assay with SF-295, with SK-MEL-2, in the assay on SK-MEL-5, in the assay with TK-10 and in the assay with CCRF-CEM was > 100 µM (inactive) each time. In addition, the GI50 is > 100 µM (inactive) with NCI-H23; > 100 µM (inactive) in the assay on ACHN; > 100 µM (inactive) in the assay on 786-0; > 100 µM (inactive) with IGROV-1; > 100 µM (inactive) in the assay on KM12; more than 100 µM in the assay on HCT-15. Also, the GI50 in the assay with NCI-H522, in the assay on MOLT-4 and with LOX IMVI was > 100 µM (inactive) throughout.
As to `CC1(C)OB(O)OC1(C)C`, the GI50 in the assay with HOP-62, in the assay with SF-295, in the assay on SK-MEL-2, in the assay on SK-MEL-5, in the assay with TK-10 and in the assay with CCRF-CEM was > 100 µM (inactive) throughout. Moreover, the GI50 in the assay with NCI-H23, in the assay on ACHN, in the assay on SN12C, in the assay with 786-0, with IGROV-1 and in the assay on KM12 was > 100 µM (inactive) each time. In addition, the GI50 is more than 100 µM in the assay on HCT-15, > 100 µM (inactive) with NCI-H522, > 100 µM (inactive) in the assay on MOLT-4 and > 100 µM (inactive) with LOX IMVI.

Values taken from ChEMBL document CHEMBL1201862, “PubChem BioAssay data set” (2004).
